Laboratory results: patent US7595300B2, “7-quinolyl ketolide antibacterial agents” (priority 2005, dated 2009)
In brackets after ≈: the same amount, converted by molar mass. Where two headings read alike, the source gives them in different places. Blank lines part the entries; values can stand above or below the compound they belong to.

Assays:
P. acnes = experiment: MIC, NCCLS Reference Agar Dilution Method for anaerobic bacteria; format: cell-based, Propionibacterium acnes
Procedure: (§1) Minimum inhibitory concentrations (“MICs”) were determined by the NCCLS Reference Agar Dilution Method (M11-A5, Vol. 21, No. 2) for anaerobic bacteria. A panel of 84 antibiotic-susceptible and resistant strains of Propionibacteria from distinct geographic locations were selected. Following revival from frozen stocks, each strain was purity plated onto Wilkins Chalgren Agar, pH 7.2 (Oxoid, UK), and the appropriate antibiotic resistance/susceptibility phenotype was confirmed by antibiotic disc testing. Each strain was subjected to an agar dilution MIC assay. […] The inocula for each batch of strains were prepared from 7-day old Wilkins Chalgren Agar plate cultures by resuspension of colonies in Wilkins Chalgren Anaerobe broth, pH 7.2 (Oxoid, UK) to an optical density (OD600) of 0.2±0.02. The inoculum (1.0-2.0 μL) for each strain was applied to a Wilkins Chalgren Agar MIC plate in a grid pattern using a Multipoint Inoculator (Denley, UK). All agar plates were incubated at 37° C. for 3 days under anaerobic conditions in AnaeroPack 7 liter rectangular jars (Mitsubishi Gas Chemical Company, Inc., Japan).

P. granulosum = experiment: as above; format: cell-based, Propionibacterium granulosum
Procedure: as §1

anesthetized rats = experiment: Cardiovascular safety, QT interval in anesthetized rats, i.v. bolus; format: in vivo, rat; details: anesthetized rat, incremental i.v. bolus doses 0.47 to 15 mg/kg
Procedure: (§2) Total doses of drug (0.47, 0.94, 1.88, 3.75, 7.5, and 15 mg/kg) or equivalent volumes of vehicle were administered incrementally as an i.v. bolus to groups of 6 anesthetized rats or guinea pigs at 0, 15, 30, 45, 60, and 75 minutes. Hemodynamic parameters including mean arterial pressure (MAP) and heart rate (HR), and ECG parameters (QT and PR intervals and QRS duration) were recorded. For the rat, injection of vehicle gave a 16% increase in QT interval over baseline. For the guinea pig, injection of vehicle gave a 3% increase in QT interval over baseline.

[1] = Pharmacokinetics in the mouse, plasma and lung tissue; format: in vivo; details: oral gavage 10 mg/kg; for Lung AUC / Lung Cmax: mouse lung tissue; for Plasma AUC / Plasma Cmax: mouse plasma
Procedure: The pharmacokinetics of compounds of formula (VIII) and compounds of formula (II) and (III) were measured in the mouse. Compounds were administered either intravenously (i.v.) at 1 mg/kg, or per oral gavage (p.o.) at 10 mg/kg. Plasma samples were taken and analyzed by LC/MS-MS. For lung tissue pharmacokinetics, lungs were removed and homogenized, followed by analyzis by LC/MS-MS.

anesthetized guinea pigs = experiment: Cardiovascular safety, QTc interval in anesthetized guinea pigs, i.v. bolus; format: in vivo, guinea pig; details: for QTc prolongation (% above vehicle): anesthetized guinea pig, incremental i.v. bolus doses 0.47 to 15 mg/kg; for effect on the QTc interval in the anesthetized guinea pig: cumulative doses up to 30 mg/kg, relative to vehicle controls
Procedure: as §2

M. catarrhalis = experiment: MIC, NCCLS broth microdilution, respiratory pathogens; format: cell-based; details: Moraxella catarrhalis, M. catarrhalis
Procedure: (§3) Minimum inhibitory concentrations (“MICs”) were determined by the NCCLS broth microdilution procedure for susceptibility testing for bacteria that grow aerobically (National Committee for Clinical Laboratory Standards, 1997. Methods for dilution antimicrobial susceptibility tests for bacteria that grow aerobically, 4th ed. Approved standard. NCCLS Document M7-A4. National Committee for Clinical Laboratory Standards, Villanova, Pa.). Stock solutions were prepared on the day of the test and appropriate aliquots were added to cation adjusted Mueller-Hinton broth (CAMHB, DIFCO) or Haemophilus test media. Two-fold serial dilutions were prepared and added to wells in microtiter plates. Final test concentrations ranged from 8 to 0.004 ug/ml. Broth cultures of bacteria inoculated from growth on overnight plates for all test bacteria except Streptococcus pneumoniae and Haemophilus influenzae were incubated at 35° C. and then adjusted to the Kirby Bauer standard and diluted in CAMHB to achieve a final inoculum concentration of approximately 5×10^5 CFU/ml. Inocula for S. pneumoniae and H. influenzae were prepared by directly suspending colonies from an overnight plate, adjusting the turbidity and diluting as above. S. pneumoniae media was supplemented with 3% lysed horse blood. All plates were incubated in ambient air at 35° C. for 20-24 h for S. pneumoniae and Haemophilus influenzae and 16-20 h for all other bacteria.

Haemophilus influenzae = experiment: as above; format: cell-based; details: H. influenzae
Procedure: as §3

Streptococcus pneumoniae = experiment: as above; format: cell-based; details: S. pneumoniae; for MIC50: read-out: MIC50; for MIC90: read-out: MIC90
Procedure: as §3

S. pyogenes = experiment: as above; format: cell-based; details: Streptococcus pyogenes; for MIC50: read-out: MIC50; for MIC90: read-out: MIC90
Procedure: as §3

[2] = marker RNA 2057, phenotype EryR
[3] = marker RNA 2058, phenotype EryR
[4] = marker RNA 2059, phenotype EryR

SMILES: CC[C@H]1OC(=O)[C@H](C)[C@@H](O[C@H]2C[C@@](C)(OC)[C@@H](O)[C@H](C)O2)[C@H](C)[C@@H](O[C@@H]2O[C@H](C)C[C@H](N(C)C)[C@H]2O)[C@](C)(O)C[C@@H](C)C(=O)[C@H](C)[C@@H](O)[C@]1(C)O [erythromycin]
MIC range (P. acnes; [2]): 4 µg/mL (≈ 5.45 µM)
MIC range (P. granulosum; marker none, phenotype none): 0.06 to 8 µg/mL

SMILES: CC1CC(N(C)C)C(O)C(O[C@@H]2[C@@H](C)C(=O)[C@@H](C)C(=O)O[C@H](CCF)[C@@]3(C)OC(=O)N[C@@H]3[C@@H](C)C(=O)[C@H](C)C[C@@]2(C)OC/C=C/c2cnc3ccccc3c2)O1 (stereo partly shown) [A]
QT prolongation (% above vehicle) (anesthetized rats): 8 % above vehicle
Lung AUC [1]: 2.3 ug/mL-h
Lung Cmax [1]: 800 ng/mL
Plasma AUC [1]: 0.7 ug/mL-h
Plasma Cmax [1]: 400 ng/mL
QTc prolongation (% above vehicle) (anesthetized guinea pigs): 10 % above vehicle
effect on the QTc interval in the anesthetized guinea pig (anesthetized guinea pigs): pronounced, dose-dependent prolongation of the QT interval

SMILES: CCC[C@@H]1C[C@@H](C(=O)N[C@@H]([C@H]2O[C@H](SC)[C@H](O)[C@@H](O)[C@H]2O)[C@H](C)Cl)N(C)C1 [clindamycin]
MIC range (P. acnes; marker RNA 1058, phenotype TetR): 0.25 to 256 µg/mL
MIC range (P. acnes; marker RNA 1058/2058, phenotype TetR, EryR): 256 µg/mL (≈ 602 µM)
MIC range (P. acnes; marker RNA 1058/2059, phenotype TetR, EryR): 8 to 16 µg/mL
MIC range (P. acnes; [2]): 1 µg/mL (≈ 2.35 µM)
MIC range (P. acnes; [3]): 8 to 256 µg/mL
MIC range (P. acnes; marker RNA 2058, phenotype EryR, TetR): 2 to 256 µg/mL
MIC range (P. acnes; [4]): 8 to 256 µg/mL
MIC range (P. acnes; marker RNA 2059, phenotype EryR, TetR): 8 to 32 µg/mL
MIC range (P. acnes; marker ermX, phenotype EryR): >512 µg/mL
MIC range (P. acnes; marker none, phenotype none): 0.125 to 1 µg/mL
MIC range (P. acnes; marker unknown, phenotype ClindR): 4 µg/mL (≈ 9.41 µM)
MIC range (P. granulosum; [3]): 512 µg/mL (≈ 1200 µM)
MIC range (P. granulosum; [4]): 2 to 512 µg/mL
MIC range (P. granulosum; marker ermX, phenotype EryR): 512 µg/mL (≈ 1200 µM)
MIC range (P. granulosum; marker none, phenotype none): 0.06 to 0.25 µg/mL

SMILES: CC1CC(N(C)C)C(O)C(O[C@@H]2[C@@H](C)C(=O)[C@@H](C)C(=O)O[C@H](CCF)[C@@]3(C)OC(=O)N[C@@H]3[C@@H](C)C(=O)[C@H](C)C[C@@]2(C)OC/C=C/c2cnc3cccnc3c2)O1 (stereo partly shown) [D]
QT prolongation (% above vehicle) (anesthetized rats): 28 % above vehicle
QTc prolongation (% above vehicle) (anesthetized guinea pigs): 14 % above vehicle
effect on the QTc interval in the anesthetized guinea pig (anesthetized guinea pigs): pronounced, dose-dependent prolongation of the QT interval

SMILES: CC1CC(N(C)C)C(O)C(O[C@@H]2[C@@H](C)C(=O)[C@@H](C)C(=O)O[C@H](CCF)[C@@]3(C)OC(=O)N[C@@H]3[C@@H](C)C(=O)[C@H](C)C[C@@]2(C)OC/C=C/c2ccc3ncccc3c2)O1 (stereo partly shown) [C]
QT prolongation (% above vehicle) (anesthetized rats): 20 % above vehicle
QTc prolongation (% above vehicle) (anesthetized guinea pigs): 12 % above vehicle
effect on the QTc interval in the anesthetized guinea pig (anesthetized guinea pigs): pronounced, dose-dependent prolongation of the QT interval

More lines, main results first:

Lung AUC [1]: 19.0 ug/mL-h
Lung Cmax [1]: 3300 ng/mL
Plasma AUC [1]: 3.9 ug/mL-h
Plasma Cmax [1]: 1000 ng/mL
SMILES: CC1CC(N(C)C)C(O)C(O[C@@H]2[C@@H](C)C(=O)[C@](C)(F)C(=O)O[C@H](CCF)[C@@]3(C)OC(=O)N[C@@H]3[C@@H](C)C(=O)[C@H](C)C[C@@]2(C)OC/C=C/c2cnc3ccccc3c2)O1 (stereo partly shown) [B]
QT prolongation (% above vehicle) (anesthetized rats): 10 % above vehicle
QTc prolongation (% above vehicle) (anesthetized guinea pigs): 3 % above vehicle
effect on the QTc interval in the anesthetized guinea pig (anesthetized guinea pigs): smaller yet persistent increase in QTc at the highest dose

Lung AUC [1]: 2.2 ug/mL-h
Lung Cmax [1]: 450 ng/mL
Plasma AUC [1]: 0.54 ug/mL-h
Plasma Cmax [1]: 210 ng/mL
SMILES: CC1CC(N(C)C)C(O)C(O[C@@H]2[C@@H](C)C(=O)[C@@H](C)C(=O)O[C@H](CCF)[C@@]3(C)OC(=O)N[C@@H]3[C@@H](C)C(=O)[C@H](C)C[C@@]2(C)OC/C=C/c2ccc3nccnc3c2)O1 (stereo partly shown) [G]
QT prolongation (% above vehicle) (anesthetized rats): 12 % above vehicle
QTc prolongation (% above vehicle) (anesthetized guinea pigs): 1 % above vehicle
effect on the QTc interval in the anesthetized guinea pig (anesthetized guinea pigs): moderate, dose-dependent increase in the QTc interval that slowly returned to baseline

MIC50 (M. catarrhalis; read-out: MIC50): 0.12 µg/mL (≈ 0.16 µM)
MIC90 (M. catarrhalis; read-out: MIC90): 0.12 µg/mL (≈ 0.16 µM)
MIC50 (Haemophilus influenzae; resistant): > 8 µg/mL
MIC90 (Haemophilus influenzae; resistant): > 8 µg/mL
MIC50 (Haemophilus influenzae; sensitive): 8 µg/mL (≈ 10.7 µM)
MIC90 (Haemophilus influenzae; sensitive): 8 µg/mL (≈ 10.7 µM)
MIC50 (Streptococcus pneumoniae; 20 h, genotype ermB + mef): > 8 µg/mL
MIC90 (Streptococcus pneumoniae; genotype ermB + mef): > 8 µg/mL
MIC50 (Streptococcus pneumoniae; genotype ermB): > 8 µg/mL
MIC90 (Streptococcus pneumoniae; genotype ermB): > 8 µg/mL
MIC50 (Streptococcus pneumoniae; genotype mef): 4 µg/mL (≈ 5.35 µM)
MIC90 (Streptococcus pneumoniae; genotype mef): 8 µg/mL (≈ 10.7 µM)
MIC50 (Streptococcus pneumoniae; genotype sensitive): 0.06 µg/mL (≈ 0.0802 µM)
MIC90 (Streptococcus pneumoniae; genotype sensitive): 0.06 µg/mL (≈ 0.0802 µM)
MIC50 (S. pyogenes; genotype ermB): > 8 µg/mL
MIC90 (S. pyogenes; genotype ermB): > 8 µg/mL
MIC50 (S. pyogenes; genotype mef): 8 µg/mL (≈ 10.7 µM)
MIC90 (S. pyogenes; genotype mef): > 8 µg/mL
MIC50 (S. pyogenes; genotype sensitive): 0.06 µg/mL (≈ 0.0802 µM)
MIC90 (S. pyogenes; genotype sensitive): 0.06 µg/mL (≈ 0.0802 µM)
SMILES: CC[C@H]1OC(=O)[C@H](C)[C@@H](O[C@H]2C[C@@](C)(OC)[C@@H](O)[C@H](C)O2)[C@H](C)[C@@H](O[C@@H]2O[C@H](C)C[C@H](N(C)C)[C@H]2O)[C@](C)(OC)C[C@@H](C)C(=O)[C@H](C)[C@@H](O)[C@]1(C)O [clarithromycin, reference compound]
